Data set [1] concerns Candida albicans. Kind of data set: Antifungal activity against Candida albicans ATCC 90028 after 18 to 24 hrs by Alamar blue assay. Type of data set: functional. The conditions noted are these: for MIC: Candida albicans, ATCC 90028. (Resazurin is reduced to fluorescent resorufin, in cell work by metabolically active cells.)
Data set [2] deals with Pichia kudriavzevii. In words: Fungicidal activity against Candida krusei ATCC 6258 after 18 to 24 hrs by Alamar blue assay. Type of data set: functional.
The test system of data set [3] is Cryptococcus neoformans. Kind of data set: Antifungal activity against Cryptococcus neoformans ATCC 90113 after 68 to 72 hrs by Alamar blue assay. Type of data set: functional.
In another data set the test system is Pseudomonas aeruginosa. In words: Anti-bacterial activity against Pseudomonas aeruginosa ATCC 27853 by CLSI method. Type of data set: functional.
Data set [4] has as its system Escherichia coli. In words: Anti-bacterial activity against Escherichia coli ATCC 35218 by CLSI method. Type of data set: functional.
The test system of data set [5] is Mycobacterium intracellulare. Kind of data set: Bactericidal activity against Mycobacterium intracellulare ATCC 23068 after 68 to 72 hrs by Alamar blue assay. Type of data set: functional.
The subject of data set [6] is Staphylococcus aureus. In words: Bactericidal activity against Staphylococcus aureus ATCC 29213 by CLSI method. Type of data set: functional.
For the next data set, the system named is Aspergillus fumigatus. Kind of data set: Antifungal activity against Aspergillus fumigatus ATCC 90906 after 68 to 72 hrs by Alamar blue assay. Type of data set: functional.
A further data set has as its system Vero. Kind of data set: Cytotoxicity against African green monkey Vero cells up to 10 ug/ml after 48 hrs by neutral red dye based assay. Particulars: chlorocebus sabaeus. It counts as cell-based.
Data set [7] concerns Pichia kudriavzevii. In words: Antifungal activity against Candida krusei ATCC 6258 after 18 to 24 hrs by Alamar blue assay. It counts as functional. The conditions noted are these: Pichia kudriavzevii, ATCC 6258.
The test system of data set [8] is Mycobacterium intracellulare. In words: Anti-bacterial activity against Mycobacterium intracellulare ATCC 23068 after 68 to 72 hrs by Alamar blue assay. It counts as functional, cell-based. Particulars: for MIC: Mycobacterium intracellulare, ATCC 23068.
The next data set deals with Nakaseomyces glabratus. Kind of data set: Antifungal activity against Candida glabrata ATCC 90030 after 18 to 24 hrs by Alamar blue assay. It counts as functional.
The subject of data set [9] is Staphylococcus aureus. Kind of data set: Anti-bacterial activity against methicillin-resistant Staphylococcus aureus ATCC 33591 by CLSI method. It counts as functional. Particulars: Staphylococcus aureus, ATCC 33591.
In data set [10] the test system is Staphylococcus aureus. In words: Bactericidal activity against methicillin-resistant Staphylococcus aureus ATCC 33591 by CLSI method. It counts as functional.
For data set [11], the system named is Staphylococcus aureus. Kind of data set: Anti-bacterial activity against Staphylococcus aureus ATCC 29213 by CLSI method. It counts as functional. The conditions noted are these: Staphylococcus aureus, ATCC 29213.
The subject of data set [12] is Escherichia coli. In words: Bactericidal activity against Escherichia coli ATCC 35218 by CLSI method. It counts as functional.
In data set [13] the test system is Cryptococcus neoformans. Kind of data set: Fungicidal activity against Cryptococcus neoformans ATCC 90113 after 68 to 72 hrs by Alamar blue assay. It counts as functional.
For data set [14], the system named is Candida albicans. Kind of data set: Fungicidal activity against Candida albicans ATCC 90028 after 18 to 24 hrs by Alamar blue assay. Type of data set: functional.

Values after ≈ are worked out from the molar mass of the structure shown. Non-standard residues stand in square brackets, D forms with d. Residues, ends and D or L forms follow the SMILES beside them. His(τ-Bzl) = N[C@@H](Cc1cn(Cc2ccccc2)cn1)C(=O)O; Phe(4-Me) = Cc1ccc(C[C@H](N)C(=O)O)cc1; Cha = N[C@@H](CC1CCCCC1)C(=O)O; Phg = N[C@H](C(=O)O)c1ccccc1; Orn = NCCC[C@H](N)C(=O)O

As a reminder, the IC50 is the concentration needed to halve the response being measured. A word on the MFC: it is the lowest tested concentration that kills the fungus rather than only halting it. Usually MIC stands for the least concentration at which growth counts as inhibited. Usually MBC stands for the smallest concentration meeting the test's criterion for killing. Turning to `CC(C)C[C@H](NC(=O)[C@H](CC1CCCCC1)NC(=O)[C@@H](Cc1c[nH]c2ccccc12)NC(=O)[C@@H](N)CCCN)C(=O)N[C@H](Cc1ccccc1)C(=O)N[C@@H](Cc1cn(Cc2ccccc2)cn1)C(N)=O` (H-[Orn][dW][Cha]L[dF][His(τ-Bzl)]-NH2), the IC50 entry in the data set with Candida albicans [1], with Pseudomonas aeruginosa, in the data set on Escherichia coli [4], in the data set on Aspergillus fumigatus and in the data set with Nakaseomyces glabratus was “Not Active” throughout. In the data set on Pichia kudriavzevii [2], the MFC is 20 µg/mL (≈ 20.9 µM). For the same molecule, the MIC amounted to 5 µg/mL (≈ 5.22 µM) against Cryptococcus neoformans [3], 20 µg/mL (≈ 20.9 µM) against Pichia kudriavzevii [7] and 20 µg/mL (≈ 20.9 µM) in data set [8]. The MBC (in data set [5]; against Staphylococcus aureus [6]) was 20 µg/mL (≈ 20.9 µM) in each case. Moreover, the Activity result in the data set with Vero is recorded as “Non-Toxic”.
Consider `NCCC[C@H](N)C(=O)N[C@H](Cc1c[nH]c2ccccc12)C(=O)N[C@@H](CC1CCCCC1)C(=O)N[C@H](C(=O)N[C@H](Cc1ccccc1)C(=O)N[C@@H](Cc1cn(Cc2ccccc2)cn1)C(N)=O)c1ccccc1` (H-[Orn][dW][Cha][Phg][dF][His(τ-Bzl)]-NH2), for which the MIC with Candida albicans [1] was determined as 20 µg/mL (≈ 20.4 µM); against Staphylococcus aureus [9], 20 µg/mL (≈ 20.4 µM); against Staphylococcus aureus [11] it was 20 µg/mL (≈ 20.4 µM); against Pichia kudriavzevii [7] it was 10 µg/mL (≈ 10.2 µM). For the same molecule, the MFC in the data set on Pichia kudriavzevii [2] came to 10 µg/mL (≈ 10.2 µM). The half-maximal inhibitory concentration (IC50) entry in the data set on Pseudomonas aeruginosa, in the data set on Aspergillus fumigatus and in the data set with Nakaseomyces glabratus was “Not Active” throughout. The MBC with Staphylococcus aureus [10] amounted to 20 µg/mL (≈ 20.4 µM); in [5], 10 µg/mL (≈ 10.2 µM); in the data set with Staphylococcus aureus [6], 20 µg/mL (≈ 20.4 µM). Also, in the data set with Vero, the Activity entry is recorded as “Non-Toxic”.
Take `CC[C@@H](C)[C@@H](NC(=O)[C@H](CC1CCCCC1)NC(=O)[C@@H](Cc1c[nH]c2ccccc12)NC(=O)[C@@H](N)CCCN)C(=O)N[C@H](Cc1ccccc1)C(=O)N[C@@H](Cc1cn(Cc2ccccc2)cn1)C(N)=O` (H-[Orn][dW][Cha][dI][dF][His(τ-Bzl)]-NH2): the MIC in the data set on Candida albicans [1] came to 20 µg/mL (≈ 20.9 µM); against Escherichia coli [4] (Escherichia coli, ATCC 35218), 20 µg/mL (≈ 20.9 µM); in the data set on Staphylococcus aureus [11], 20 µg/mL (≈ 20.9 µM); in the data set on Pichia kudriavzevii [7] it was 10 µg/mL (≈ 10.4 µM); in data set [8], 20 µg/mL (≈ 20.9 µM). Further, the MFC was found to be 10 µg/mL (≈ 10.4 µM) against Pichia kudriavzevii [2] and 2.5 µg/mL (≈ 2.61 µM) against Cryptococcus neoformans [13]. The MBC (in the data set on Escherichia coli [12]; in data set [5]; against Staphylococcus aureus [6]) was 20 µg/mL (≈ 20.9 µM) throughout.
For `CC(C)[C@@H](NC(=O)[C@H](CC1CCCCC1)NC(=O)[C@@H](Cc1c[nH]c2ccccc12)NC(=O)[C@@H](N)CCCN)C(=O)N[C@H](Cc1ccccc1)C(=O)N[C@@H](Cc1cn(Cc2ccccc2)cn1)C(N)=O` (H-[Orn][dW][Cha][dV][dF][His(τ-Bzl)]-NH2), the MIC with Candida albicans [1] was 20 µg/mL (≈ 21.2 µM); against Cryptococcus neoformans [3], 1.25 µg/mL (≈ 1.32 µM); against Pichia kudriavzevii [7], 20 µg/mL (≈ 21.2 µM); in data set [8], 20 µg/mL (≈ 21.2 µM). Also, the MFC against Pichia kudriavzevii [2] and against Candida albicans [14] was 20 µg/mL (≈ 21.2 µM) each time. For the same molecule, the IC50 result in the data set with Pseudomonas aeruginosa, in the data set with Escherichia coli [4], in the data set with Aspergillus fumigatus and in the data set on Nakaseomyces glabratus was “Not Active” throughout. The Activity result in the data set on Vero was “Non-Toxic”.
With `Cc1ccc(C[C@H](NC(=O)[C@@H](Cc2ccccc2)NC(=O)[C@@H](Cc2c[nH]c3ccccc23)NC(=O)[C@@H](N)CCCN)C(=O)N[C@H](Cc2ccccc2)C(=O)N[C@H](CCCNC(=N)N)C(N)=O)cc1` (H-[Orn][dW][dF][Phe(4-Me)][dF][dR]-NH2), the IC50 result in the data set on Candida albicans [1] is “Not Active”; in the data set on Cryptococcus neoformans [3] it was 0.83 µg/mL (≈ 0.893 µM); in the data set on Staphylococcus aureus [9] (read-out: IC50) it was more than 20 µg/mL; in the data set with Pseudomonas aeruginosa (Pseudomonas aeruginosa, ATCC 27853, read-out: IC50) it was 15.7 µg/mL (≈ 16.9 µM); in the data set with Escherichia coli [4] (Escherichia coli, ATCC 35218, read-out: IC50) it was 4.8 µg/mL (≈ 5.17 µM); in the data set on Staphylococcus aureus [11] (read-out: IC50) it was 13.5 µg/mL (≈ 14.5 µM). Further, the IC50 entry was “Not Active” in the data set on Aspergillus fumigatus, 14 µg/mL (≈ 15 µM) in the data set on Pichia kudriavzevii [7] (read-out: IC50), “Not Active” in [8] and “Not Active” in the data set on Nakaseomyces glabratus. Also, the results for the minimal fungicidal concentration (MFC) against Pichia kudriavzevii [2] and with Cryptococcus neoformans [13] were 20 µg/mL (≈ 21.5 µM) and 1.25 µg/mL (≈ 1.35 µM), respectively. Also, the MIC was 1.25 µg/mL (≈ 1.35 µM) against Cryptococcus neoformans [3]; 10 µg/mL (≈ 10.8 µM) against Escherichia coli [4] (Escherichia coli, ATCC 35218); 20 µg/mL (≈ 21.5 µM) with Staphylococcus aureus [11]; 20 µg/mL (≈ 21.5 µM) against Pichia kudriavzevii [7]. Moreover, the MBC against Escherichia coli [12] and with Staphylococcus aureus [6] was 20 µg/mL (≈ 21.5 µM) throughout. Further, the Activity result in the data set with Vero was “Non-Toxic”.
For the molecule `Cc1ccc(C[C@H](NC(=O)[C@@H](Cc2ccccc2)NC(=O)[C@@H](Cc2c[nH]c3ccccc23)NC(=O)[C@H](N)CCCNC(=N)N)C(=O)N[C@H](Cc2ccccc2)C(=O)N[C@@H](Cc2cn(Cc3ccccc3)cn2)C(N)=O)cc1` (H-[dR][dW][dF][Phe(4-Me)][dF][His(τ-Bzl)]-NH2), the concentration for half-maximal inhibition (IC50) result (in the data set with Candida albicans [1]; with Pseudomonas aeruginosa; with Aspergillus fumigatus; in data set [8]; with Nakaseomyces glabratus) was “Not Active” in each case. Also, the MFC against Pichia kudriavzevii [2] is 20 µg/mL (≈ 19.2 µM); in the data set on Cryptococcus neoformans [13], 2.5 µg/mL (≈ 2.4 µM). Also, the MIC came to 20 µg/mL (≈ 19.2 µM) with Staphylococcus aureus [9]; 20 µg/mL (≈ 19.2 µM) against Escherichia coli [4] (Escherichia coli, ATCC 35218); 20 µg/mL (≈ 19.2 µM) in the data set on Staphylococcus aureus [11]; 20 µg/mL (≈ 19.2 µM) in the data set on Pichia kudriavzevii [7]. Also, the MBC with Escherichia coli [12], in the data set with Staphylococcus aureus [10] and against Staphylococcus aureus [6] was 20 µg/mL (≈ 19.2 µM) throughout. The Activity entry in the data set with Vero is “Non-Toxic”.

The values above are taken from ChEMBL document CHEMBL4024712, “Synthesis, stability and mechanistic studies of potent anticryptococcal hexapeptides” (Eur J Med Chem, 2017).
